Data from US5159085A, “2-anilino phenylacetic acid derivatives as inhibitors of PLA2 and lipoxygenase” (American Home Products Corporation, priority 1991, dated 1992).

Tests used:
[1] = Rat acute gastroirritation assay; set-up: species or system rat (male Sprague Dawley); conditions: in vivo, po, gastric intubation, read-out: UD50
Description: The compounds of the invention are tested in the rat acute gastroirritation assay to examine their potential for causing gastric irritation when administered at doses exceeding the effective dose.
(§1) This assay is carried out as follows:
Male Sprague Dawley rats (190-220 g) are fasted for 18 hours prior to drug administration. Rats are divided into groups of 8 and coded (i.e., observer of gastric lesions is not aware of drug treatment). Drugs are dissolved or suspended in 0.5% Tween 80 and administered by gastric intubation in a volume of 1 ml/100 g body weight, control rats receiving only Tween 80. Four hours after drug administration, rats are evaluated by recording the incidence and severity of gastroirritation using the following scoring system: 0) No irritation or lesions; 1) irritation (redness); 2) ≤5 lesions (ulcers); and 3) >5 lesions. Dunnett's test (α=0.05) is used to calculate the mean ±SE of each test group and the statistical significance.

[2] = molecular target: Bee Venom PLA2 (Apis mellifera, UniProt P00630); assay: biochemical; conditions: read-out: % Inhibition at a concentration of 10 μM, Bee Venom
[3] = tested on: Rat Peritonitis Fluid PLA2; assay: In vitro isolated phospholipase A2 assay, rat peritonitis fluid PLA2; type: biochemical
[4] = tested on: Pancreatic Lipase PLA2; assay: In vitro isolated phospholipase A2 assay, pancreatic lipase PLA2; type: biochemical
[5] = tested on: LTC4; assay: In vivo murine zymosan peritonitis assay, LTC4 (lipoxygenase pathway); set-up: species or system mouse (male CD-1)
Description: The compounds of the invention are evaluated for their ability to inhibit the lipoxygenase and/or cyclooxygenase pathways of arachidonic acid metabolism in the in vivo murine zymosan peritonitis assay.
as §1
Male CD-1 mice (8 weeks old) are placed in plastic boxes in groups of six. Animals are injected with 1 ml i.p. of either 1% zymosan in pyrogen free 0.9% saline or saline (unstimulated control). Compounds are dosed orally 1 hour prior to zymosan injection. Twenty minutes after zymosan injection, the mice are asphyxiated by CO2 inhalation and the peritoneal cavity is lavaged with 2 ml ice cold Hanks Balanced Salt Solution (HBSS) without CaCl2, MgSO4 ·7H2 O and MgCL2 ·6H2 O. Peritoneal lavage fluid from each mouse is removed by syringe and placed in 5 ml plastic test tubes put on ice and volume is noted. Preparation of samples for evaluation by ELISA is as follows: Samples are centrifuged at 800×g for 15 minutes; 1 ml of the supernatant is added to 8 ml ice cold methanol and kept at -70° C. overnight to precipitate protein; and samples are then centrifuged at 800×g for 15 minutes, followed by a drying procedure in a Savant speed vac concentrator. The samples are reconstituted with 1 ml ice cold ELISA buffer and stored at -70° C. until assayed. The assay for eicosanoids (LTC4 and 6-keto-PGF1α) is performed according to conventional ELISA procedures.
Compounds to be tested orally are suspended in 0.5% Tween 80. Compounds to be tested intraperitoneally are suspended in 0.5% methylcellulose in 0.9% saline.
The total metabolite level in lavage fluid/mouse is calculated and the significance is determined by a one-way analysis of variance with LSD comparisons to control (p≤0.05). Drug effects are expressed as a percent change from control values.

Sequence of Bee Venom PLA2 (P00630 34-167 limits assumed): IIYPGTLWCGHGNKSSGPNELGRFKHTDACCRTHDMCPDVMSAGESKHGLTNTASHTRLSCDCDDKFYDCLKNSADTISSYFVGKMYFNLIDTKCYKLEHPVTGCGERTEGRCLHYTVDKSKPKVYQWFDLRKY

Row | Structure (SMILES) | TD50 at 4 h [1] [mg/kg] | inhibition at 10 µM [2] [%] | % Inhibition at a concentration of 10 μM, Rat Peritonitis Fluid [3] [%] | % Inhibition at a concentration of 10 μM, Pancreatic Lipase [4] [%] | % Inhibition LTC4 ([5]; 50 mg/kg p.o.) [%] | % Inhibition LTC4 ([5]; 100 mg/kg p.o.) [%]
1 | O=C(O)Cc1ccccc1Nc1c(Cl)cccc1Cl [diclofenac, reference compound] | 20 |  |  |  |  | 
2 | O=C(O)Cc1cc(OCc2ccc3ccccc3n2)ccc1Nc1c(Cl)cccc1Cl [Example 2, 2-[(2,6-Dichlorophenyl)amino]-5-(2-quinolylmethoxy)benzene acetic acid] |  | 38.7 | 69.7 | 90.1 | 47 | 78
